Laboratory results as given in patent US9828350B2, “5,6-dihydro-2H-[1,4]oxazin-3-yl-amine derivatives useful as inhibitors of beta-secretase (BACE)” (Janssen Pharmaceutica NV, priority 2010, dated 2017).

What was measured:
Abeta 1-42 = experiment: Cellular αLisa assay in SKNBE2 cells, Abeta 1-42; assay type: cell-based, human; conditions: incubated for 18 hours; for IC50: Homo sapiens, SKNBE2, 18 h, read-out: Cellular αLisa assay in SKNBE2 cells Abeta 42 pIC50 (converted)
Procedure, shortened: (§1)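 Human neuroblastoma SKNBE2 cells expressing wild-type hAPP695 were incubated with compound for 18 hours. Secreted Abeta total and Abeta 1-42 in medium were quantified by sandwich αLisa: biotinylated AbN/25 on streptavidin donor beads with Ab4G8 (total) or cAb42/26 (1-42) acceptor beads. Light emission read after 1 hour (ex 650 nm, em 615 nm).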

Abeta total = experiment: Cellular αLisa assay in SKNBE2 cells, Abeta total; assay type: cell-based, human; conditions: incubated for 18 hours; for IC50: Homo sapiens, SKNBE2, 18 h, read-out: Cellular αLisa assay in SKNBE2 cells Abetatotal pIC50 (converted)
Procedure, shortened: as §1

[1] = molecular target: recombinant BACE1 protein (Homo sapiens, UniProt P56817); experiment: Biochemical FRET based assay; conditions: recombinant BACE1 1 μg/ml, 120 minutes at room temperature, pH 5.0; for IC50: read-out: Biochemical FRET based assay pIC50 (converted)
Chain of recombinant BACE1 protein (P56817 46-501): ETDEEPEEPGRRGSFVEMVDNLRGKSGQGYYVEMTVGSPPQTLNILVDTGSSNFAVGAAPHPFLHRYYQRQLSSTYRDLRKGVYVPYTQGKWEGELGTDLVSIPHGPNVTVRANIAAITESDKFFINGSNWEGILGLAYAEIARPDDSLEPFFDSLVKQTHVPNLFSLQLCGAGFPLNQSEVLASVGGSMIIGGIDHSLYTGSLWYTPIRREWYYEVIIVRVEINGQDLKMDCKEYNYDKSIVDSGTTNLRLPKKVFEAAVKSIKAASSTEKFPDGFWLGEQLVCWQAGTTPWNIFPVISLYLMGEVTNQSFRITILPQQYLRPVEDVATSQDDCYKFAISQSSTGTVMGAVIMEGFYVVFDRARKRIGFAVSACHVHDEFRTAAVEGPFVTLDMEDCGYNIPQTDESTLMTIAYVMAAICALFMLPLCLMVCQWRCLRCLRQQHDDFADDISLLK
Procedure, shortened: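 Recombinant BACE1 (1 μg/ml final) was incubated 120 minutes at room temperature with […] Mca/Dnp-labelled 13-mer APP Swedish-mutant peptide in 40 mM citrate pH 5.0, 0.04% PEG, 4% DMSO, with or without compound. Cleavage was measured as fluorescence (ex 320/em 405 nm), given as RFU difference between T120 and T0.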

P-gp = molecular target: T1, P-gp (Homo sapiens, UniProt P08183); experiment: Transepithelial transport of test compounds through LLC-MDR1 monolayers; assay type: in vitro ADME; conditions: for efflux ratio at 120 min, 1 μM / Papp A→B at 120 min, 1 μM / Papp B→A at 120 min, 1 μM: pig, LLC-PK1; for efflux ratio at 120 min, 1 μM: read-out: BA/AB; for Papp A→B at 120 min, 1 μM: read-out: A to B (Apparent Permeability, Papp); for Papp B→A at 120 min, 1 μM: read-out: B to A (Apparent Permeability, Papp); for A to B (Apparent Permeability, Papp) / B to A (Apparent Permeability, Papp): 1 μM test compound, 120 minutes; for A to B (Apparent Permeability, Papp): apical to basolateral, absence of GF120918; for B to A (Apparent Permeability, Papp): basolateral to apical
T1 construct: expressed in transfected cells; host or cells: LLC-PK1 cells stably transduced with MDR1 (LLC-MDR1)
T1 sequence (P08183 whole entry): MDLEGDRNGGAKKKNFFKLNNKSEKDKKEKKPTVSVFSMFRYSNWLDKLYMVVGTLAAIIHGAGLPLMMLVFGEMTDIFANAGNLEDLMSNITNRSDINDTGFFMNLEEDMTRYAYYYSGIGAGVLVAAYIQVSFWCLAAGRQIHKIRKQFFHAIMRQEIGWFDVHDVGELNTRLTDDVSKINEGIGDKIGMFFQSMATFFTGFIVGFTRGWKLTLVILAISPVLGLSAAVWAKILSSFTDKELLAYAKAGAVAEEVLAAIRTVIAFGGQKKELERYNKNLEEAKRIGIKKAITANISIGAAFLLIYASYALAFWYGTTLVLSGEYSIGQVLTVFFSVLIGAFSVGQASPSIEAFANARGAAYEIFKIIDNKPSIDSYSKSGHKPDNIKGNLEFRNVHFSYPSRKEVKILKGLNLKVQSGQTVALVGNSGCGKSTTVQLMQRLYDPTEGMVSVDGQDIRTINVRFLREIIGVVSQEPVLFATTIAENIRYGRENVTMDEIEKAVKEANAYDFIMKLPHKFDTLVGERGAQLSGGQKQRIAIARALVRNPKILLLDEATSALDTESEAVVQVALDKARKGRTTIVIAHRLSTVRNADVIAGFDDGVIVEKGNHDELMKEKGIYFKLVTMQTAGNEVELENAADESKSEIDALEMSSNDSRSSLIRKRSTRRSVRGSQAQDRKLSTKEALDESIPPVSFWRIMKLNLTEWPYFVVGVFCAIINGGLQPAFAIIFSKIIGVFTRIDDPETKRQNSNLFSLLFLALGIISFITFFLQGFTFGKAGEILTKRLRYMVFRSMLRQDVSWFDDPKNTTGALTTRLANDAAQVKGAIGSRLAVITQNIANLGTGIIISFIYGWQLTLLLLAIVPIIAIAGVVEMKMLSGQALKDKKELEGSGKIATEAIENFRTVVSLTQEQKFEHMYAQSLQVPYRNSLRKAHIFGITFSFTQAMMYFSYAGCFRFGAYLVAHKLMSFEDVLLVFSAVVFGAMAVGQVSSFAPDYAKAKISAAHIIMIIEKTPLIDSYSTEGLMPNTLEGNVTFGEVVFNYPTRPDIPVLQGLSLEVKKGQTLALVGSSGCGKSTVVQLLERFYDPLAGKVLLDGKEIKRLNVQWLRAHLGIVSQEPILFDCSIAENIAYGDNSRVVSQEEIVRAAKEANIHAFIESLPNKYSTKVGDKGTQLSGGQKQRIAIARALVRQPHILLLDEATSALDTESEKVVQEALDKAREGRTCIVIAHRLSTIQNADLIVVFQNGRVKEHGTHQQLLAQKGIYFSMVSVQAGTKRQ
Procedure: Brief Assay Description for the Measurement of Transepithelial Transport of Test Compounds Through LLC-MDR1 Monolayers
The purpose of this assay was to assess both the in vitro passive permeability of test compounds and their ability to be transported substrates of P-gp using LLC-PK1 cells stably transduced with MDR1 in a trans-well system. The positive control for transport was ^3H-digoxin (30 nM) and the positive control inhibitor was GF120918 (5 μM). The marker compound for low permeability was ^14C-Mannitol (1 μM). The test compound concentration was 1 μM.
The integrity of the cellular monolayer was assessed in each incubation well through the inclusion of the fluorescent, low permeability marker compound, Fluorescein.
In detail, LLC-MDR1 cells were seeded on 24-well cell culture inserts (Millicell®-PCF, 0.4 μm, 13 mm diameter, 0.7 cm^2) at 400,000 cells/cm^2. Cell culture medium consisted of Medium 199 supplemented with 10% Foetal Bovine Serum (FBS) and 100 U/ml Penicillin/streptomycin and was replaced the day after seeding and the day before the experiment. The transport experiment was performed 5 days after seeding. On the day of the experiment, solutions of the test compounds were applied to the apical or basolateral side of the monolayers to assess transport in the A to B and B to A directions, respectively. The medium used in the assay was (OPTI-MEM (1×) (GIBCO) with 1 w/v % Bovine Serum Albumin. Inserts were incubated at 37° C. in a humidified incubator containing 5% CO2. Samples from the acceptor and donor compartments were collected after an incubation time of 120 min, to assess the permeability and to allow estimation of the test compound recovery during the experiment, respectively. Transport experiments were performed in triplicate. Absolute test compound concentrations were measured using LC-MS/MS and quantified via a calibration curve.

[2] = LLC-MDR1 monolayers, ratio of B to A and A to B permeation rates

Compound | IC50 (Abeta 1-42) [nM] | IC50 (Abeta total) [nM] | melting point [°C] | IC50 [1] [nM] | Cellular αLisa assay in SKNBE2 cells Abeta 42 pIC50 (Abeta 1-42) | Cellular αLisa assay in SKNBE2 cells Abetatotal pIC50 (Abeta total) | further results
COc1cncc(-c2cccc(C3(C)COCC(N)=N3)c2)c1 (racemic) [Compound 4, rac-5-[3-(5-methoxypyridin-3-yl)phenyl]-5-methyl-5,6-dihydro-2H-1,4-oxazin-3-amine] | 257 | 219 | 150 | 3640 |  |  | efflux ratio at 120 min, 1 μM (P-gp; [2]): 25.9
COc1cncc(-c2cccc(C3(C)N=C(N)COC3F)c2)c1 (single isomer, unassigned) [Compound 93] |  |  |  | 468 | 6.98 | 6.97 | efflux ratio at 120 min, 1 μM (P-gp; [2]): 4.6; Papp A→B at 120 min, 1 μM (P-gp): 7.4 ×10⁻⁶ cm/s; Papp B→A at 120 min, 1 μM (P-gp): 34.3 ×10⁻⁶ cm/s
CC1(c2cc(-c3cncnc3)ccc2F)N=C(N)COC1C(F)(F)F (single isomer, unassigned) [Compound 106] |  |  | 173.8 | 4370 | 6.2 | 6.23 | efflux ratio at 120 min, 1 μM (P-gp; [2]): 1.1; Papp A→B at 120 min, 1 μM (P-gp): 18.2 ×10⁻⁶ cm/s; Papp B→A at 120 min, 1 μM (P-gp): 19.8 ×10⁻⁶ cm/s
COc1cnc(C(=O)Nc2ccc(F)c([C@]3(C)COCC(N)=N3)c2)cn1 [Compound 39] |  |  |  |  | 8.27 | 8.38 | A to B (Apparent Permeability, Papp) (P-gp; LLC-MDR1 monolayers): 3.7 ×10⁻⁶ cm/s; B to A (Apparent Permeability, Papp) (P-gp; LLC-MDR1 monolayers): 34.2 ×10⁻⁶ cm/s
COc1cncc(-c2cccc(C3(C)N=C(N)COC3F)c2)c1 (stereo not shown) [Compound 100] | 347 | 339 | 139.2 | 1550 |  |  | efflux ratio at 120 min, 1 μM (P-gp; [2]): 3.6; Papp A→B at 120 min, 1 μM (P-gp): 7.6 ×10⁻⁶ cm/s; Papp B→A at 120 min, 1 μM (P-gp): 27.4 ×10⁻⁶ cm/s
C[C@]1(c2cc(-c3cncnc3)c(F)cc2F)N=C(N)CO[C@]1(F)C(F)(F)F [Compound 210] | > 10000 | > 10000 | > 300 | 12000 |  |  | 
C[C@]1(c2cc(-c3cncnc3)c(F)cc2F)N=C(N)CO[C@@]1(F)C(F)(F)F [Compound 211] | 2190 | 1740 | 62 | 1410 |  |  | 
C[C@]1(c2cc(-c3cncnc3)c(F)cc2F)N=C(N)CO[C@H]1C(F)(F)F [Compound 254] | 347 | 316 | 101.3 | 851 |  |  | 
C[C@]1(c2cc(-c3cncc(Cl)c3)c(F)cc2F)N=C(N)CO[C@H]1C(F)(F)F [Compound 255] | 398 | 347 | 141.4 | 447 |  |  | 
COc1cnc(C(=O)Nc2ccc(F)c([C@]3(C4CC4)COCC(N)=N3)c2)cn1 [Compound 299] | 24 | 21.4 | 196.4 | 170 |  |  | 
Cc1cc(Br)cnc1C(=O)Nc1ccc(F)c([C@@]2(C3CC3)N=C(N)CO[C@@H]2F)c1 [Compound 314] | 83.2 | 57.5 | 132.03 | 55 |  |  | 
C[C@]1(c2cc(-c3cncc(C#N)c3)c(F)cc2F)N=C(N)CO[C@@H]1C(F)(F)F [Compound 317] | 550 | 468 | 177.94 | 2040 |  |  | 

Now from value to compound, other results behind:

IC50 (Abeta 1-42) [nM] | IC50 (Abeta total) [nM] | melting point [°C] | IC50 [1] [nM] | Cellular αLisa assay in SKNBE2 cells Abeta 42 pIC50 (Abeta 1-42) | Cellular αLisa assay in SKNBE2 cells Abetatotal pIC50 (Abeta total) | Compound | further results
 |  |  |  | 7.53 | 7.52 | CC1(c2cccc(NC(=O)c3ccc(Cl)cn3)c2)N=C(N)COC1(F)C(F)(F)F (single isomer, unassigned) [Compound 113] | Papp A→B at 120 min, 1 μM (P-gp): 9 ×10⁻⁶ cm/s; Papp B→A at 120 min, 1 μM (P-gp): 9.8 ×10⁻⁶ cm/s
 |  |  | 191 | 7.23 | 7.18 | COc1cncc(-c2cccc(C3(C)N=C(N)COC3(F)C(F)(F)F)c2)c1 (single isomer, unassigned) [Compound 118] | efflux ratio at 120 min, 1 μM (P-gp; [2]): 1.3; Papp A→B at 120 min, 1 μM (P-gp): 12 ×10⁻⁶ cm/s; Papp B→A at 120 min, 1 μM (P-gp): 15 ×10⁻⁶ cm/s
 |  |  |  | 8.34 | 8.45 | C[C@@]1(c2cc(NC(=O)c3ccc(C#N)cn3)ccc2F)COCC(N)=N1 [Compound 43] | Biochemical FRET based assay pIC50 [1]: 7.14; A to B (Apparent Permeability, Papp) (P-gp; LLC-MDR1 monolayers): 1.4 ×10⁻⁶ cm/s; B to A (Apparent Permeability, Papp) (P-gp; LLC-MDR1 monolayers): 26.6 ×10⁻⁶ cm/s; BA/AB (P-gp; [2]): 18.5
200 | 195 | 165.14 | 166 |  |  | C[C@]1(c2cc(NC(=O)c3ncc(Cl)cc3Cl)ccc2F)N=C(N)CO[C@]1(F)C(F)(F)F [Compound 185] | 
170 | 166 | 175.32 | 1000 |  |  | CC1(c2cc(NC(=O)c3ccc(Cl)cn3)cc(C(F)(F)F)c2)COCC(N)=N1 (stereo not shown) [Compound 197] | 
11 | 10 | 185.6 | 26.9 |  |  | COc1ccc(C(=O)Nc2ccc(F)c([C@@]3(C)N=C(N)CO[C@@H]3F)c2)nc1 [Compound 208] | 
> 10000 | > 10000 | 145.3 | 6460 |  |  | C[C@]1(c2cc(-c3cncc(Cl)c3)c(F)cc2F)N=C(N)CO[C@]1(F)C(F)(F)F [Compound 212] | 
4070 | 3720 | 70.1 | 437 |  |  | C[C@]1(c2cc(-c3cncc(Cl)c3)c(F)cc2F)N=C(N)CO[C@@]1(F)C(F)(F)F [Compound 213] | 
14.1 | 14.5 | 181.79 | 44.7 |  |  | N#Cc1ccc(C(=O)Nc2ccc(F)c([C@@]3(C4CC4)N=C(N)CO[C@H]3C(F)(F)F)c2)nc1 [Compound 229, (2R,3R)—N-{3-[5-amino-3-cyclopropyl-2-(trifluoromethyl)-3,6-dihydro-2H-1,4-oxazin-3-yl]-4-fluorophenyl}-5-cyanopyridine-2-carboxamide] | 
 |  | 196.44 | 81.3 | 7.14 | 7.17 | CCC1(c2cc(NC(=O)c3cnc(OC)cn3)ccc2F)N=C(N)COC1(F)C(F)(F)F (stereo not shown) [Compound 301] | 
 |  | 204.89 | 1820 | 5.73 | 5.76 | CCC1(c2cc(-c3cncnc3)ccc2F)N=C(N)COC1(F)C(F)(F)F (stereo not shown) [Compound 303] | 
25.1 | 25.1 | 123.8 | 41.7 |  |  | COc1ccc(C(=O)Nc2ccc(F)c([C@@]3(C)N=C(N)CO[C@@]3(F)C(F)(F)F)c2)nc1 [Compound 305] | 
